Laboratory results published in patent US20060160197A1 (priority 2004, published 2006).

Experiments:
Format in all cases: physicochemical
[1] = Example 23 back extraction with aqueous glycolic acid from loaded solvent (70% trialkylamine/30% toluene), 140° C.; conditions: 70% C8-C10 trialkylamine/30% toluene, 40 psig nitrogen
Procedure: (§1) A variety of analytical methods can be employed to analyze the reactants and products produced using the present methods include HPLC, GC, ion selective electrodes, MS, NMR, etc. HPLC was used to measure glycolic acid and various related products. Briefly, samples are diluted with water (as needed to be within HPLC detection range) and mixed 1:1 with 0.2 M n-propanol in water (HPLC internal standard). HPLC Analytical Method: (BioRad HPX 87H ion exclusion column (BioRad, Hercules, Calif.), 300 mm×7.8 mm; 0.01 N H2SO4 mobile phase; 1.0 mL/min flow at 50° C.; 10 μL injection volume; RI detector and UV 210 nm, 20 min analysis time). HPLC Equipment: (Waters 2695 ‘Alliance’ Separations Module, 2410 Refractive Index Detector, 2487 Dual λ Absorbance Detector and Empower Pro Software (Waters Corp, Milford, Mass.).
(§2) Back Extraction from a Loaded Solvent of Approximately 70% C8-C10 Trialkylamine in Combination with 30% Toluene
(§3) The vessel was then closed, and the headspace purged with nitrogen. The resulting mixture was stirred for 60 minutes at 140° C. under 40 psig (˜275.8 kPa) nitrogen. The stirring was stopped and the two phases allowed to separate at 140° C., then the organic phase was sampled under pressure through the top dip tube into a Hoke cylinder, and aqueous phases was sampled under pressure through the bottom dip tube into another Hoke cylinder.

[2] = Example 4 reactive solvent extraction, 90% Alamine 336/10% MIBK, 25° C.; conditions: pH 2 to 3
Procedure: as §1
Solvent Extraction Using Approximately 90% C8-C10 Trialkylamine in Combination with 10% Methyl Isobutyl Ketone at 25° C.
Into a 4-mL glass reactor equipped with magnetic stir bar was placed 1 mL of a mixed solvent containing 90% (volume/volume) Alamine® 336 (Cognis) and 10% (volume/volume) methyl isobutyl ketone (MIBK). The pH of an aqueous solution of ammonium glycolate (5 wt % to 40 wt %) was adjusted to pH 2 to 3 with concentrated sulfuric acid, then 1 mL of the resulting aqueous solution was added to the reactor. The resulting mixture was stirred for 30 minutes at 25° C.

[3] = Example 3 reactive solvent extraction, 70% Alamine 336/10% MIBK/20% kerosene, 75° C.; conditions: pH 2 to 3
Procedure: as §1
Solvent Extraction Using Approximately 70% C8-C10 Trialkylamine in Combination with 10% Methyl Isobutyl Ketone and 20% Kerosene at 75° C.
Into a 4-mL glass reactor equipped with magnetic stir bar was placed 1 mL of a mixed solvent containing 70% (volume/volume) Alamine® 336 (Cognis), 10% (volume/volume) methyl isobutyl ketone (MIBK) and 20% (volume/volume) kerosene. The pH of an aqueous solution of ammonium glycolate (5 wt % to 40 wt %) was adjusted to pH 2 to 3 with concentrated sulfuric acid, then 1 mL of the resulting aqueous solution was added to the reactor. The resulting mixture was stirred for 30 minutes at 75° C.

[4] = Example 21 back extraction with aqueous glycolic acid from loaded solvent (70% trialkylamine/30% toluene), 120° C.; conditions: 70% C8-C10 trialkylamine/30% toluene, 40 psig nitrogen
Procedure: as §1, §2
The vessel was then closed, and the headspace purged with nitrogen. The resulting mixture was stirred for 60 minutes at 120° C. under 40 psig (˜275.8 kPa) nitrogen. The stirring was stopped and the two phases allowed to separate at 120° C., then the organic phase was sampled under pressure through the top dip tube into a Hoke cylinder, and aqueous phases was sampled under pressure through the bottom dip tube into another Hoke cylinder.

[5] = Example 15 reactive solvent extraction, 90% Alamine 336/10% xylenes, 75° C.; conditions: pH 2 to 3
Procedure: as §1
Solvent Extraction Using Approximately 90% C8-C10 Trialkylamine in Combination with 10% Xylenes at 75° C.
Into a 4-mL glass reactor equipped with magnetic stir bar was placed 1 mL of a mixed solvent containing 90% (volume/volume) Alamine® 336 (Cognis), 10% (volume/volume) xylenes (mixed xylene isomers). The pH of an aqueous solution of ammonium glycolate (5 wt % to 40 wt %) was adjusted to pH 2 to 3 with concentrated sulfuric acid, then 1 mL of the resulting aqueous solution was added to the reactor. The resulting mixture was stirred for 30 minutes at 75° C.

[6] = Example 18 back extraction using water from loaded solvent (70% Alamine 336/10% MIBK/20% kerosene), 140° C.; conditions: back extraction into deionized water, 40 psig nitrogen
Procedure: as §1
Following the procedures in Example 1, into a 1-L cylindrical glass vessel on an extraction mixer (mix by rotating back and forth vertically) was placed 100 mL of a mixed solvent containing 70% (volume/volume) Alamine® 336 (Cognis), 10% (volume/volume) methyl isobutyl ketone (MIBK) and 20% (volume/volume) kerosene. The pH of an aqueous solution of ammonium glycolate (10 wt % to 50 wt %) was adjusted to approximately pH 2 to 3 with concentrated sulfuric acid, then 100 mL of the resulting aqueous solution was added to the extraction mixer. The resulting mixture was stirred for 60 minutes at room temperature. […] The organic phase was collected and used in the back extraction. This organic phase containing glycolic acid is referred as “loaded solvent” below.
Back Extraction Using Water from a Loaded Solvent of Approximately 70% C8-C10 Trialkylamine in Combination with 10% Methyl Isobutyl Ketone and 20% Kerosene
as §3, with “Into a 85-mL pressure reaction glass tube (pressure reaction vessel, from Andrews Glass Co.) equipped with magnetic stir bar and double dip tubes was placed 10 mL deionized water and 10 mL of the loaded solvent (see Example 16). The vessel” for “The vessel”

[7] = initial 20.0 wt % glycolic acid in aqueous phase, 14.2 wt % in loaded solvent
[8] = initial 40.0 wt % glycolic acid in aqueous phase, 15.7 wt % in loaded solvent
[9] = initial 3.6 wt % glycolic acid in aqueous phase
[10] = initial 8.5 wt % glycolic acid in aqueous phase
[11] = initial 12.1 wt % glycolic acid in aqueous phase
[12] = initial 16.1 wt % glycolic acid in aqueous phase
[13] = initial 20.6 wt % glycolic acid in aqueous phase
[14] = initial 25.1 wt % glycolic acid in aqueous phase
[15] = initial 29.1 wt % glycolic acid in aqueous phase
[16] = initial 32.8 wt % glycolic acid in aqueous phase

For `O=C(O)CO` [glycolic acid], the “Partition coefficient (wt % org./wt % aq.)” value [1, 7] was 0.44, the “Partition coefficient (wt % org./wt % aq.)” value [1, 8] was 0.45 and the “Partition coefficient (wt % org./wt % aq.)” value [2, 9] was 1.98. For the same compound, the “Partition coefficient (wt % org./wt % aq.)” value [2, 10] was 1.57, the “Partition coefficient (wt % org./wt % aq.)” value [2, 11] was 1.38 and the “Partition coefficient (wt % org./wt % aq.)” value [2, 12] was 1.44. For the same compound, the “Partition coefficient (wt % org./wt % aq.)” value [2, 13] was 1.13, the “Partition coefficient (wt % org./wt % aq.)” value [2, 14] was 1.19 and the “Partition coefficient (wt % org./wt % aq.)” value [2, 15] was 1.14. The “Partition coefficient (wt % org./wt % aq.)” value [2, 16] was 0.92, the “Partition coefficient (wt % org./wt % aq.)” value [3, 9] was 0.16 and the “Partition coefficient (wt % org./wt % aq.)” value [3, 10] was 0.22. The “Partition coefficient (wt % org./wt % aq.)” value [3, 13] was 0.49, the “Partition coefficient (wt % org./wt % aq.)” value [3, 14] was 0.56 and the “Partition coefficient (wt % org./wt % aq.)” value [3, 15] was 0.54. For the same compound, the “Partition coefficient (wt % org./wt % aq.)” value [3, 16] was 0.52, the “Partition coefficient (wt % org./wt % aq.)” value [4, 7] was 0.54 and the “Partition coefficient (wt % org./wt % aq.)” value [4, 8] was 0.54. The “Partition coefficient (wt % org./wt % aq.)” value [5, 9] was 0.55, the “Partition coefficient (wt % org./wt % aq.)” value [5, 10] was 0.55 and the “Partition coefficient (wt % org./wt % aq.)” value [5, 11] was 0.66. For the same compound, the “Partition coefficient (wt % org./wt % aq.)” value [5, 12] was 0.64, the “Partition coefficient (wt % org./wt % aq.)” value [5, 13] was 0.65 and the “Partition coefficient (wt % org./wt % aq.)” value [5, 14] was 0.73. The “Partition coefficient (wt % org./wt % aq.)” value [5, 15] was 0.75, the “Partition coefficient (wt % org./wt % aq.)” value [5, 16] was 0.72 and the “Partition coefficient (wt % org./wt % aq.)” value ([6]; initial 3.9 wt % glycolic acid in loaded solvent) was 0.48. The “Partition coefficient (wt % org./wt % aq.)” value ([6]; initial 11.3 wt % glycolic acid in loaded solvent) was 0.37, the “Partition coefficient (wt % org./wt % aq.)” value ([6]; initial 16.0 wt % glycolic acid in loaded solvent) was 0.34 and the “Partition coefficient (wt % org./wt % aq.)” value ([6]; initial 17.5 wt % glycolic acid in loaded solvent) was 0.35.
